Reference: ChEMBL document CHEMBL5335825, “Multi-target potential of newly designed tacrine-derived cholinesterase inhibitors: Synthesis, computational and pharmacological study” (Bioorg Med Chem, 2024)
Activity calls are given as the source filed them. The rule behind the calls is not given here.

Experiments:
[1] = Selectivity index, ratio of IC50 for cytotoxicity against human SH-SY5Y cells to IC50 for inhibition of electric eel AChE
in vitro = settings: human, SH-SY5Y cells
Description: Cytotoxicity against human SH-SY5Y cells assessed as reduction in cell viability incubated for 24 hrs by crystal violet staining based analysis

[2] = Selectivity index, ratio of IC50 for cytotoxicity against human SH-SY5Y cells to IC50 for inhibition of equine serum BuChE
Cholinesterase = Cholinesterase (Equus caballus, UniProt P81908); test: Inhibition of equine serum BuChE using butyrylthiocholine iodide as substrate preincubated for 10 mins followed by substrate addition and measured every min for 10 mins by DTNB based Ellman's assay
Sequence of Cholinesterase (P81908 whole entry): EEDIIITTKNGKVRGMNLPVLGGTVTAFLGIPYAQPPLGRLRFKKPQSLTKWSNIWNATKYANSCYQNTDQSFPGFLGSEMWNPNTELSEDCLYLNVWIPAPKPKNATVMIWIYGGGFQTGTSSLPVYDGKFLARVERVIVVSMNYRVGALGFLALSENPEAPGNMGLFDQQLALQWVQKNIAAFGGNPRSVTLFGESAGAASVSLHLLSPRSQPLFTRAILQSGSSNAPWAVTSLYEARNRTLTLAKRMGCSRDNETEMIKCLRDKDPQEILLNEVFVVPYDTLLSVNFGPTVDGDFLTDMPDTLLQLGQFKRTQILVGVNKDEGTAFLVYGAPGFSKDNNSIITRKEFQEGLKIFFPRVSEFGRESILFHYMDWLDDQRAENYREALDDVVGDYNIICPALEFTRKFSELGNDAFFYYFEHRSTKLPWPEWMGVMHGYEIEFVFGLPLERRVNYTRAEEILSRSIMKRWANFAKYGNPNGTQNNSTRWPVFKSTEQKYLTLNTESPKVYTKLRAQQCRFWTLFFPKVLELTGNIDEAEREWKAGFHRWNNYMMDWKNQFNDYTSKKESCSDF

Acetylcholinesterase = Acetylcholinesterase (Electrophorus electricus, UniProt O42275); test: Inhibition of electric eel AChE using acetylthiocholine iodide as substrate preincubated for 10 mins followed by substrate addition and measured every min for 10 mins by DTNB based Ellman's assay
Sequence of Acetylcholinesterase (O42275 whole entry): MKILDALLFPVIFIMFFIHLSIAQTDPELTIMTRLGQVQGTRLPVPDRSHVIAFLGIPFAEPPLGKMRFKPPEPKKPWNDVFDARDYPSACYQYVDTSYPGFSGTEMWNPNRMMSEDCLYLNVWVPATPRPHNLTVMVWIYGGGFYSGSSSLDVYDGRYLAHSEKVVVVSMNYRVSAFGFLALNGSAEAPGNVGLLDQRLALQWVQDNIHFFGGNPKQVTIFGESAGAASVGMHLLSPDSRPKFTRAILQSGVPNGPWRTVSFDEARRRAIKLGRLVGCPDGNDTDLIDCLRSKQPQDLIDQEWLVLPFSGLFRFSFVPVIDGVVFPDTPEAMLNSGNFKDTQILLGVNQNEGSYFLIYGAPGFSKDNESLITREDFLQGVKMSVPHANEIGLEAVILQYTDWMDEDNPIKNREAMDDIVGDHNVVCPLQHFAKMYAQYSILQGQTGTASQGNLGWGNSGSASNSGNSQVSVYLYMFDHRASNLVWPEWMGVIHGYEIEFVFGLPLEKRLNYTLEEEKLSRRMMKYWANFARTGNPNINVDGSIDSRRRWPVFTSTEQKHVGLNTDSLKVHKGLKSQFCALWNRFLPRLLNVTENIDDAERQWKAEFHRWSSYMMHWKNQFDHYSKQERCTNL

[3] = molecular target: Acetylcholinesterase (Electrophorus electricus) (UniProt O42275); test: Mixed type inhibition of electric eel AChE using varying concentrations of acetylthiocholine iodide as substrate assessed as decrease in Vmax with varied Km by Lineweaver-Burk plot analysis
Sequence of Acetylcholinesterase (Electrophorus electricus) (O42275 24-633 limits assumed): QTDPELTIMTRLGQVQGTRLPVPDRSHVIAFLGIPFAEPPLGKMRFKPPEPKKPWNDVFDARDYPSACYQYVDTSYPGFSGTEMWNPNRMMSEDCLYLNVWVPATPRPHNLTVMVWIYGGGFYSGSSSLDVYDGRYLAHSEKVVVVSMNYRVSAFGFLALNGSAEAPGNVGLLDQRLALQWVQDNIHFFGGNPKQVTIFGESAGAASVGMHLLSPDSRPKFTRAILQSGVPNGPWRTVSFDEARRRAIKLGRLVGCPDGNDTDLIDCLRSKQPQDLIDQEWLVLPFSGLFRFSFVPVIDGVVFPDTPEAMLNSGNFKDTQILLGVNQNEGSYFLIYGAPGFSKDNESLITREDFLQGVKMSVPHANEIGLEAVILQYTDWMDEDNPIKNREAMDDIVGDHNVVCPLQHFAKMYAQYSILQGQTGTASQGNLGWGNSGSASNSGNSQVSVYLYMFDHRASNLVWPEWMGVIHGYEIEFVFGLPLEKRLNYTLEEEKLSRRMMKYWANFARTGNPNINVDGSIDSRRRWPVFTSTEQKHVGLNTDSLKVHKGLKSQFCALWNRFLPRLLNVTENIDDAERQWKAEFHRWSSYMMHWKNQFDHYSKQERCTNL

[4] = molecular target: Cholinesterase (Equus caballus) (UniProt P81908); test: Mixed type inhibition of equine serum BuChE using varying concentrations of butyrylthiocholine iodide as substrate assessed as decrease in Vmax with varied Km by Lineweaver-Burk plot analysis
Sequence of Cholinesterase (Equus caballus) (P81908 whole entry): as the sequence (P81908 whole entry) above

Structure (SMILES) | Ratio IC50 [1] | IC50 at 24 h (in vitro) [nM] | Ratio IC50 [2] | IC50 (Cholinesterase) [nM] | IC50 (Acetylcholinesterase) [nM] | inhibition [3] | inhibition [4]
O=C(NCCCCCNc1c2c(nc3ccccc13)CCCC2)C1CCN(C(=O)c2cccc(F)c2)CC1 | 417.2 | 58000 | 789 | 73.5 | 139 |  | 
O=C(NCCCCCNc1c2c(nc3ccccc13)CCCC2)C1CCN(C(=O)c2ccccc2Cl)CC1 | 1188.8 | 186000 | 2247.9 | 82.5 | 156 | Active | Active
COc1ccc(C(=O)N2CCC(C(=O)NCCCCCNc3c4c(nc5ccccc35)CCCC4)CC2)cc1 | 667.9 | 149000 | 605.3 | 246 | 222 |  | 
O=C(NCCCCCNc1c2c(nc3ccccc13)CCCC2)C1CCN(C(=O)c2ccccn2)CC1 | 247.1 | 112000 | 347.1 | 324 | 455 |  | 
COc1ccccc1C(=O)N1CCC(C(=O)NCCCCCNc2c3c(nc4ccccc24)CCCC3)CC1 | 480.4 | 109000 | 2266.7 | 48 | 226 |  | 
COc1cccc(C(=O)N2CCC(C(=O)NCCCCCNc3c4c(nc5ccccc35)CCCC4)CC2)c1 | 326 | 93600 | 1546.3 | 60.5 | 287 |  | 
O=C(NCCCCCNc1c2c(nc3ccccc13)CCCC2)C1CCN(C(=O)c2ccncc2)CC1 | 472 | 137000 | 1635.1 | 84 | 291 |  | 
O=C(NCCCCCNc1c2c(nc3ccccc13)CCCC2)C1CCN(C(=O)c2ccccc2F)CC1 |  | 192000 |  | 34 | 241 |  | 
O=C(NCCCCCNc1c2c(nc3ccccc13)CCCC2)C1CCN(C(=O)c2ccccc2)CC1 | 589.8 | 69300 | 1490.3 | 46.5 | 117 |  | 
O=C(NCCCCCNc1c2c(nc3ccccc13)CCCC2)C1CCN(C(=O)c2cccnc2)CC1 |  |  |  | 98.5 | 162 |  | 
O=C(NCCCCCNc1c2c(nc3ccccc13)CCCC2)C1CCN(C(=O)c2ccc(Cl)cc2)CC1 | 69.4 | 30700 | 268.5 | 114 | 443 |  | 
O=C(NCCCCCNc1c2c(nc3ccccc13)CCCC2)C1CCN(C(=O)c2ccc(F)cc2)CC1 |  |  |  | 154 | 370 |  | 
O=C(NCCCCCNc1c2c(nc3ccccc13)CCCC2)C1CCN(C(=O)c2cccc(Cl)c2)CC1 | 926.2 | 147000 | 2082.3 | 70.5 | 159 |  | 
